In US8580782B2, “Substituted pyrazolo[1,5-a]pyrimidines as cyclin dependent kinase inhibitors” (Merck Sharp & Dohme Corp., priority 2002, dated 2013) one finds IC50 data, which are given here for six molecules.

This experiment addresses CDK2 (cyclin A or cyclin E complex) (Homo sapiens (Human), UniProt P24941). The experiment is described as follows: CDK2 in vitro kinase assay (either cyclin A or E-dependent), SPA with biotinylated Histone H1 peptide and 33P-ATP. Type of experiment: biochemical. Particulars: Table 87.

From the text: Assay: • Baculovirus Constructions: Cyclins A and E were cloned into pFASTBAC (Invitrogen) by PCR, with the addition of a GluTAG sequence (EYMPME) at the amino-terminal end to allow purification on anti-GluTAG affinity columns. The expressed proteins were approximately 46 kDa (cyclin E) and 50 kDa (cyclin A) in size. CDK2 was also cloned into pFASTBAC by PCR, with the addition of a haemaglutinin epitope tag at the carboxy-terminal end ([sequence]). The expressed protein was approximately 34 kDa in size. • Enzyme Production: Recombinant baculoviruses expressing cyclins A, E and CDK2 were infected into SF9 cells at a multiplicity of infection (MOI) of 5, for 48 hrs. Cells were harvested by centrifugation at 1000 RPM for 10 minutes. Cyclin-containing (E or A) pellets were combined with CDK2 containing cell pellets and lysed on ice for 30 minutes in five times the pellet volume of lysis buffer containing 50 mM Tris pH 8.0, 0.5% NP40, 1 mM DTT and protease/phosphatase inhibitors (Roche Diagnostics GmbH, Mannheim, Germany). Mixtures were stirred for 30-60 minutes to promote cyclin-CDK2 complex formation. Mixed lysates were then spun down at 15000 RPM for 10 minutes and the supernatant retained. 5 ml of anti-GluTAG beads (for one liter of SF9 cells) were then used to capture cyclin-CDK2 complexes. Bound beads were washed three times in lysis buffer. Proteins were competitively eluted with lysis buffer containing 100-200 ug/mL of the GluTAG peptide. Eluate was dialyzed overnight in 2 liters of kinase buffer containing 50 mM Tris pH 8.0, 1 mM DTT, 10 mM MgCl2, 100 uM sodium orthovanadate and 20% glycerol. Enzyme was stored in aliquots at −70° C. • In Vitro Kinase Assay: CDK2 kinase assays (either cyclin A or E-dependent) were performed in low protein binding 96-well plates (Corning Inc, Corning, N.Y.). Enzyme was diluted to a final concentration of 50 μg/ml in kinase buffer containing 50 mM Tris pH 8.0, 10 mM MgCl2, 1 mM DTT, and 0.1 mM sodium orthovanadate. The substrate used in these reactions was a biotinylated peptide derived from Histone H1 (from Amersham, UK). The substrate was thawed on ice and diluted to 2 μM in kinase buffer. Compounds were diluted in 10% DMSO to desirable concentrations. For each kinase reaction, 20 μl of the 50 μg/ml enzyme solution (1 μg of enzyme) and 20 μl of the 1 μM substrate solution were mixed, then combined with 10 μl of diluted compound in each well for testing. […] The reaction was allowed to run for 1 hour at room temperature. The reaction was stopped by adding 200 μl of stop buffer containing 0.1% Triton X-100, 1 mM ATP, 5 mM EDTA, and 5 mg/ml streptavidine coated SPA beads (from Amersham, UK) for 15 minutes. The SPA beads were then captured onto a 96-well GF/B filter plate (Packard/Perkin Elmer Life Sciences) using a Filtermate universal harvester (Packard/Perkin Elmer Life Sciences.). Non-specific signals were eliminated by washing the beads twice with 2M NaCl then twice with 2 M NaCl with 1% phosphoric acid. The radioactive signal was then measured using a TopCount 96 well liquid scintillation counter (from Packard/Perkin Elmer Life Sciences). • IC50 Determination: Dose-response curves were plotted from inhibition data generated, each in duplicate, from 8 point serial dilutions of inhibitory compounds. Concentration of compound was plotted against % kinase activity, calculated by CPM of treated samples divided by CPM of untreated samples. To generate IC50 values, the dose-response curves were then fitted to a standard sigmoidal curve and IC50 values were derived by nonlinear regression analysis. These kinase activities were generated by using cyclin A or cyclin E using the above-described assay.

Usually IC50 stands for the midpoint of a concentration-inhibition curve. High values mean a need for much substance, low ones inhibition by little substance. The molecule `Fc1ccccc1-c1cc(NCc2cccnc2)n2ncc(Br)c2n1` [Example 4] had an IC50 of 11 nM.

`Fc1ccccc1-c1cc(NCc2cccnc2)n2ncc(Cl)c2n1` [Example 5] gave an IC50 of 21 nM.

`Clc1ccccc1-c1cc(NCc2cccnc2)n2ncc(Br)c2n1` [Example 8] had a half-inhibitory concentration (IC50) of 3 nM.

Molecule `CC(C)c1cc(NCc2ccncc2)n2ncc(Br)c2n1` [Example 10] gave a 50% inhibitory concentration (IC50) of 42 nM.

The molecule `CC(C)(C)c1cc(NCc2ccncc2)n2ncc(Br)c2n1` [Example 12] showed a concentration for half-maximal inhibition (IC50) of 170 nM.

As for `N#Cc1cnn2c(NCc3ccncc3)cc(-c3ccccc3)nc12` [Example 16], 620 nM corresponded to half-maximal inhibition (IC50).
